Experimental data reported in US7888319B2, “Compositions and methods for promoting wound healing and tissue regeneration” (MUSC Foundation for Research Development, priority 2004, dated 2011).
Ends that are not written are not given here.

What was measured:
[1] = system: NIH-3T3 cells; assay: In vitro scratch injury of NIH-3T3 monolayer (repopulation, PCNA immunolabeling); type: cell-based; details: 30 μM, 24 hours after scratch
Procedure: An NIH-3T3 monolayer was pre-treated with ACT 1 peptide (SEQ ID NO:2) for 24 hrs, and “scratch-injured” with a p200 pipette tip. The “scratch injury” was subsequently allowed to “heal” for 24 hours in the presence of (a, b) 30 μM ACT 1 peptide (SEQ ID NO:2), (c, d) 30 μM non-active control peptide (SEQ ID NO: 55), or (e, f) vehicle control solution containing no ACT peptide or control peptide. […] The repopulation of the “scratch injury” occurs in part via migration of the transformed cells crawling into the “scratch injury” area. Figures (b), (d) and (f) show proliferating cell nuclear antigen (PCNA) immunolabeling of cells in the “scratch injury” or at the injury edge.
NIH-3T3 fibroblasts were “scratch injured” and subject to the continuous presence of 30 μM ACT 1 peptide (SEQ ID NO:2) for 24 hours or the control conditions as outlined in FIG. 2. […] The cells have been labeled with fluorescent phalloidin to aid visualization. ACT peptide-treated cells show low levels of repopulation of the scratch injury area (white double headed arrows).
NIH-3T3 cells were grown over 2-3 days until forming a near-confluent monolayer on a tissue culture dish according to standard protocols and the monolayer was then pre-treated with ACT 1 peptide (SEQ ID NO:2) for 24 hrs, and “scratch-injured” with a p200 pipette tip. The “scratch injury” was subsequently allowed to repopulate for 24 hours in the presence of 30 μM ACT 1 peptide (SEQ ID NO:2) dissolved in the culture media (FIG. 2a, b) or in presence of two control conditions (FIG. 2c-f). In the first control condition, the “scratch-injured” cells were allowed to repopulate for 24 hours in the presence of a non-active control peptide (as in FIG. 1) dissolved in the culture media at a concentration of 30 μM (FIG. 2c, d). In the second control condition, phosphate buffered saline (PBS) was added to the culture media and the “scratch-injured” cells were allowed to repopulate in the presence of this vehicle control solution containing no ACT peptide or control peptide (FIG. 2e, f). […] The repopulation of the “scratch injury” occurs in part via migration of the transformed cells crawling into the “scratch injury” area. Figures (FIGS. 2b, d, and f) show proliferating cell nuclear antigen (PCNA) immunolabeling of cells in the “scratch injury” or at the injury edge.
The cells were labeled with fluorescent phalloidin to aid visualization. ACT peptide-treated cells show low levels of repopulation of the scratch injury area (white double headed arrows).

[2] = system: 5 mm diameter excisional skin wounds; assay: Small (5 mm) excisional skin wounds in adult mice, ACT 1 to ACT 5; type: in vivo, mouse; details: for closure, inflammation, healing and scarring of injuries: 100 μM in pluronic gel, 50-60 μl, applied at 0 and 24 hours, 240 hour time course (10 days), vs gel without peptide; for wound closure rates (area of open wound as % of unclosed wound relative to the control): ~5 mice per condition, Mann-Whitney U-test over the time course
Procedure: Anesthetized adult mice had 2 small (5 mm diameter) excisional skin wounds made by fine surgical scissors on the neck and (upper) back. The boundaries of the injuries were demarcated by a 5 mm wide circular template cut in a plastic sheet. 50-60 μl of a solution of 20% pluronic gel containing either no (control) or one of the ACT peptides (ACT 2-SEQ ID NO: 1, ACT 1-SEQ ID NO:2, ACT 3-SEQ ID NO:3, ACT 4-SEQ ID NO:4, ACT 5-SEQ ID NO:5) dissolved at concentrations of 100 μM were then applied to the excisional injuries. Control or ACT peptide-containing gel was applied subsequently 24 hours after the initial application. No further applications of control and ACT peptide-containing gel were made after the second application. […] Note that the same wound on the same animal is shown at the different time points during the healing time course. Anesthetized adult mice had 2 small (5 mm diameter) excisional skin wounds made by fine surgical scissors on the neck and (upper) back. The boundaries of the injuries were demarcated by a 5 mm wide circular template cut in a plastic sheet. 50-60 μl of a solution of 30% pluronic gel containing either no (control) or one of the ACT peptides (ACT 2—SEQ ID NO:1, ACT 1—SEQ ID NO:2, ACT 3—SEQ ID NO:3, ACT 4—SEQ ID NO:4, ACT 5—SEQ ID NO:5) dissolved at concentrations of 100 μM were then applied to the excisional injuries. Control or ACT peptide-containing gels were applied subsequently 24 hours after the initial application. No further applications of control and ACT peptide-containing gel were made after the second application. […] Note that the same wound on the same animal is shown at the different time points during the healing time course. The area of open wound was measured during the time course using NIH image according to standard protocols on multiple (˜5 mice per control or treatment condition) adult mice. These individual area measurements were then normalized to (i.e., divided by) the average area measured for the control injuries for a given time point, multiplied by 100 to give a % of unclosed wound relative to the control and then plotted against time. A Mann-Whitney U-test was used to statistically assess the effects of ACT peptides over the time course. […] These treatments provided results with significant p values.

[3] = system: brain penetration injury; assay: Penetration injury of brain in adult rat with hollow fiber membrane (HFM) implant; type: in vivo
Procedure: (b) and (c) show low magnification survey views of sections of brain tissue (cortex) surrounding hollow fiber membrane (HFM) implants filled with ACT peptide (100 μM) plus vehicle gel (b) or collagen vehicle gel alone as control (c). In the control tissue (c), a high density of immunolabeled GFAP-positive astrocytes is observed near the site of injury caused by the HFM. The density of these cells appears to diminish slightly distal from the injury. […] Indeed, the levels of GFAP positive cells are not dissimilar to those seen in normal uninjured brain tissue. The regions of tissue within the white rectangles in figures (b) and (c) are shown at higher magnification in (d) and (e) respectively. In the brain injury treated by ACT peptide (d), it can be seen that GFAP-positive astrocytes are not only less numerous, but are also smaller than those seen in the control injury (e).
(a) and (b) show low magnification survey views of sections of brain tissue (cortex) surrounding HFM implants (implant or injury border is shown by arrows) filled with control collagen vehicle gel or ACT peptide plus vehicle gel at 1 week following brain penetration injury. In the control tissue (b), a high density of immunolabeled GFAP-positive astrocytes and a low density of NeuN immunolabeled neurons are observed near the site of injury caused by the HFM. The density of these cells appears to diminish and increase, respectively, distal from the HFM. […] The areas in (a) and (b) proximal to the HFMs are shown at high magnification views in (c) and […], respectively. Again, in the control tissue (d) a striking increase in the density of GFAP-positive astrocytes and a reduced density of NeuN-positive neurons is observed compared to ACT peptide treated tissue (c). A complementary pattern is observed near the HFM containing ACT peptide, with NeuN positive neurons predominating over astrocytes (c).
Anesthetized adult rats were positioned in a stereotaxic apparatus. A midline incision was made on the scalp to expose the skull. A stereotaxic drill was sighted 2 mm posterior to the bregma and 2 holes were drilled with a 1 mm spherical bit, each at 2.5 mm to the right and left of the bregma, and 3.5 mm below the dura. A cerebral lesion was made by inserting an 18-gauge needle. The coordinates were determined from the atlas by Paxinos and Watson (1986). The hollow fiber membrane (HFM) was inserted in the hole and external skin sutures were placed to cover the stab. The ACT peptide was dissolved at 100 μM concentration in a 2% collagen vehicle solution contained within the HFM. […] Reactive astrocytosis associated with inflammation and subsequently with glial scar formation follows a well characterized time course after brain injury in rodent models (Norenberg, 1994; Fawcett and Asher, 1999). […]

[4] = system: 5 mm-diameter excisional skin wounds; assay: Quantitative assessment of wound closure, tissue regeneration and tensile strength of 5 mm excisional skin wounds; type: in vivo, mouse
Source text: ACT peptide (n=12) and control (n=8) 5 mm-diameter excisional skin wounds were generated on adult mice as described above. Quantitative assessments of wound closure rate, counts of regenerated hair follicles and tensile strength measurements were then undertaken on the wounded skin at time points up to 90 days following the initial insult. […] Similarly, at 10 days, when most wounds were nearing completion of closure, a highly significant difference was still maintained such that ACT peptide-treated wounds were on average 43% smaller than control wounds. […] Studies were undertaken of the mechanical properties of healed 5 mm diameter excisional wounds at 1 month and 3 months following injury. For mechanical property measurements, the skin samples were obtained after sacrificing the animal and evaluated using a MTS 858 Mini Bionix (MTS Systems Corporation, MN, USA) equipped with a 5 kg load cell. During measurement the skin sample was extended to break at a rate of 0.5 mm/s. Force and extension was measured at break. The tensile strength (stress) and extension to break (strain) was calculated as follows, Stress (N/mm^2)=Force at break (N)/cross-sectional area of sample (mm^2). Strain (%)=[Increase in length at break (mm)/Original length (mm)]×100. Stress and strain calculations for each wounded skin sample was normalized to a normal skin sample from a nearby area collected from the same animal. […] At 3 months, normalized stress to break of peptide-treated wound skin was on average double that of control wounded skin, although the high variance within the treatment group precluded significant mean separation from the control. […] Further, significant improvements in extensibility of peptide-treated wounds were found. […] By contrast, control wounds at 3 months remained only 60% as extensible as normal skin.

## RQPKIWFPNRRKPWKIELDDPRPR (not fully specified (N-terminus)) [non-active control peptide, reference compound]
[1]
  proliferating cell nuclear antigen (PCNA) immunolabeling of cells in the scratch injury or at the injury edge: brightly labeled proliferating cells seen
[1]; 24 hrs pre-treatment
  repopulation of the scratch injury area: large numbers of cells

## RPRPDDLEV [ACT 3]
[2]
  closure, inflammation, healing and scarring of injuries: closed faster, were significantly less inflamed in appearance, healed faster and scarred less
[2]; 100 μM, over the time course
  size of improvement in wound closure over the control, compared among peptides: most pronounced improvements over the control
[2]; 100 μM
  wound closure rates (area of open wound as % of unclosed wound relative to the control): significantly improved wound closure rates

## RPRPDDVPV [ACT 4]
[2]
  closure, inflammation, healing and scarring of injuries: modest improvement in healing over the control
[2]; 100 μM
  wound closure rates (area of open wound as % of unclosed wound relative to the control): more modest, although consistent, improvement

## KARSDDLSV [ACT 5, 9 amino acids of the carboxy terminus of human Cx40]
[2]
  closure, inflammation, healing and scarring of injuries: closed faster, were significantly less inflamed in appearance, healed faster and scarred less
[2]; 100 μM
  wound closure rates (area of open wound as % of unclosed wound relative to the control): significantly improved wound closure rates

## ACT peptide: alpha Connexin carboxy-Terminal polypeptide used in brain injury and Example 4 studies; sequence not stated there (RQPKIWFPNRRKPWKKRPRPDDLEI; not fully specified (N-terminus))
[3]; 100 μM in 2% collagen vehicle within HFM, 1 week after injury, vs collagen vehicle gel
  density of GFAP-positive astrocytes adjacent the HFM: much lower density
[3]; 100 μM in HFM, 1 week, high magnification view, relative to the control
  neurons in the process of fission: high frequency of neurons in the process of fission
[3]; 100 μM in HFM, 1 week, vs control
  numbers of NeuN immunolabeled neurons proximal to the HFM: higher numbers
[3]; 100 μM in HFM, 1 week, vs control injury
  size of GFAP-positive astrocytes: smaller
[4]; at 1 month, vs control wounds
  strain (extensibility) required to break wounds: modestly improved
[4]; at 3 months, normalized to normal skin, control wounds 60%
  strain to break of peptide-treated wound skin, normalized to normal skin: 90%
[4]; at 3 months, vs control wounded skin, not significant (high variance)
  normalized stress to break of wound skin: double
[4]; at 10 days
  increase in the number of regenerated hair follicles per unit area of the healed wound over control wounds: 3.2 fold
  wound size, smaller than control wounds (average): 43%
[4]; within 24 hours of peptide treatment, n=12 vs control n=8
  wound closure relative to control wounds: significantly enhanced

## PSSRASSRASSRPRPDDLEI [ACT 2]
[2]
  closure, inflammation, healing and scarring of injuries: closed faster, were significantly less inflamed in appearance, healed faster and scarred less
[2]; 100 μM
  wound closure rates (area of open wound as % of unclosed wound relative to the control): significantly improved wound closure rates
